From patent US20200397796A1, “METHODS OF TREATMENT OF CANCER COMPRISING CHK1 INHIBITORS” (SIERRA ONCOLOGY, INC., priority 2018, published 2020)

Legend:
[1] = Excretion in urine and feces, mice; type: in vivo, mouse; settings: 24-hour collection
Method: (§1) The excretion of SRA737 has been studied in mice and rats administered SRA737 at either 5 mg/kg IV or 10 mg/kg orally. Urine and feces were collected for a 24-hour period after dosing. In mice, renal excretion of intact SRA737 was consistently low (less than 10% of dose) after both oral and IV administration. Following IV administration of SRA737, less than 8% of the dose was recovered as intact drug in the feces while after oral administration this figure was less than 3%. Excretion of intact SRA737 was lower in the rat than in the mouse with <1% of dose excreted renally over 24 hours and less than 1.5% of dose excreted into the feces over 24 hours.

Renca (renal cancer) = test: In vivo efficacy, Renca syngeneic model; design: species or system mouse; settings: data not shown
Method: (§2) A program of in vivo efficacy studies was performed to assess the activity of SRA737 in combination with genotoxic chemotherapy and targeted agents, and as monotherapy.
(§3) One of these models also carried a MYCN amplification. A fourth HGSOC PDX model with partial resistance to PARPi was also sensitive to high dose SRA737 monotherapy.

[2] = Excretion in urine and feces, rats; type: in vivo; settings: rat; over 24 hours
Method: as §1

[3] = test system: HGSOC PDX models harboring CCNE1 amplifications accompanied by TP53 mutations; test: In vivo efficacy, HGSOC PDX models with CCNE1 amplifications; design: species or system mouse; settings: single agent; several models; data not shown
Method: as §2, §3

[4] = Three-cycle combination toxicity study with gemcitabine and cisplatin, mouse; type: in vivo; settings: mice; SRA737 with IV gemcitabine and cisplatin, intermittent schedule over 18 days
Excerpt: Clinical combination of SRA737 and gemcitabine in some cases therefore elicited exacerbated hematological and GI toxicities.

Chk1 [5] = target: T1, Chk1 (Homo sapiens, UniProt O14757); settings: limited off-target activity against other kinases; Walton et al.; cited from earlier work
T1 construct: endogenous in cells
T1 sequence (O14757 1-476): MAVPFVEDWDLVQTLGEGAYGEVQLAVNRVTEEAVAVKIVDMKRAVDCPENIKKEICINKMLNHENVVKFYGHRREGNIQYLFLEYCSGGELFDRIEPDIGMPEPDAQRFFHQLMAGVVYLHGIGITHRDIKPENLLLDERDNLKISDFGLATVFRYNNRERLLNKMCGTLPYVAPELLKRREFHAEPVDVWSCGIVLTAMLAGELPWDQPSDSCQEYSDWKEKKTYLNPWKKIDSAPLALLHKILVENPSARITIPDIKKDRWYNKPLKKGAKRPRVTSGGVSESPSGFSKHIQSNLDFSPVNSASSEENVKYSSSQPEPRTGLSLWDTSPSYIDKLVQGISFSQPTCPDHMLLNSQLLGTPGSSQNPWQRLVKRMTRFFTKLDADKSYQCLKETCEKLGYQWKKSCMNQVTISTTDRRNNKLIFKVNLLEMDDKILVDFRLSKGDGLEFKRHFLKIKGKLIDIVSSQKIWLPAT

Chk1 [6] = target: T1, Chk1; test: In vitro genotoxic chemotherapy-induced Chk1 autophosphorylation, checkpoint arrest and cytotoxicity potentiation; type: cell-based
[7] = test system: patient-derived bladder carcinoma; test: In vivo efficacy, patient-derived bladder carcinoma model; design: species or system mouse; settings: in combination with standard-dose gemcitabine; data not shown
Method: as §2, §3

CYP1A2 = CYP1A2 induction in vitro; type: in vitro ADME; settings: positive control omeprazole, concentration dependent
[8] = mouse, in vivo, po
[9] = test system: SJSA-1 human osteosarcoma; test: In vivo efficacy, SJSA-1 xenograft model; design: species or system mouse; settings: data not shown
Method: as §2, §3

[10] = Plasma protein binding, ultracentrifugation, mouse; type: in vitro ADME; settings: for Percentage Bound / Percentage Free: Mouse plasma
Method: The PK of SRA737 have been determined in the mouse, rat, dog and monkey following oral and IV administration (Table 3). […] An acceptable terminal elimination t1/2 was also observed in each species. […] The plasma protein binding of SRA737 at 1 and 10 μM was examined in mouse, minipig, monkey and human plasma using ultracentrifugation and in dog plasma (10 μM) using rapid equilibrium dialysis.

CYP 1A2 = CYP 1A2 (Homo sapiens, UniProt P05177); test: CYP inhibition, 1A2; type: in vitro ADME; settings: highest concentration investigated
Chain of CYP 1A2 (P05177 whole entry): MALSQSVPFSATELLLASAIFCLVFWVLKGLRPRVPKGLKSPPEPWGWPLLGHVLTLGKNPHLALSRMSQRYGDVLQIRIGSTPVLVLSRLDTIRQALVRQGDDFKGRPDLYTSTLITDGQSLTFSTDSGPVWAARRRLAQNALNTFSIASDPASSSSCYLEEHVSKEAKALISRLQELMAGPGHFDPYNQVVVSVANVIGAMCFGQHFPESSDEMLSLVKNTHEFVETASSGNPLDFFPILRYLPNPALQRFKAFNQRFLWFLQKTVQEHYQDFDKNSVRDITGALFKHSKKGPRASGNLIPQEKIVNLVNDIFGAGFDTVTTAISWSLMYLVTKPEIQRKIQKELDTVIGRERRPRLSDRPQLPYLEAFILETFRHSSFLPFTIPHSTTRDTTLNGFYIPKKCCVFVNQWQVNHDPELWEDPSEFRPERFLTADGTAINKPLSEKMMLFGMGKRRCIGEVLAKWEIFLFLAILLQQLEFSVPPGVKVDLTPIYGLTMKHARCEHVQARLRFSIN

minipig hepatocytes = test: Stability in cryopreserved hepatocytes, minipig; type: in vitro ADME; settings: 10 μM, after 4 hours of incubation
Method: The formation of SRA737-related metabolites was determined in cryopreserved hepatocytes from human, mouse, rat, dog, minipig and monkey samples after incubation with SRA737 at a nominal concentration of 10 μM for up to 4 hours. […] In the human hepatocyte preparation, approximately 67% of the parent remained after 4 hours of incubation compared to 75% and 7% in the rat and minipig preparations, respectively. Eight human SRA737 metabolites were observed. All SRA737 metabolites formed by human hepatocytes were also formed by monkey hepatocytes. Six metabolites were present at equal or greater abundance in the monkey.

N#Cc1cnc(Nc2cc(NCC3CNCCO3)c(C(F)(F)F)cn2)cn1 (stereo not shown) [SRA737, 5-[[4-[[morpholin-2-yl]methylamino]-5-(trifluoromethyl)-2-pyridyl]amino]pyrazine-2-carbonitrile]
dose recovered as intact drug in the feces ([1]; IV 5 mg/kg): less than 8 % of the dose
renal excretion of intact SRA737 ([1]; after both oral (10 mg/kg) and IV (5 mg/kg)): less than 10 % of dose
dose recovered as intact drug in the feces ([1]; oral 10 mg/kg): less than 3 % of the dose
single agent efficacy (Renca (renal cancer)): single agent efficacy
intact SRA737 excreted into the feces [2]: less than 1.5 % of dose
intact SRA737 excreted renally [2]: < 1 % of dose
antitumor activity [3]: Significant antitumor activity
findings exacerbated by SRA737 over the cisplatin/gemcitabine control group [4]: reversible marrow toxicity, consequent splenomegaly, and the high-dose intestinal observations
inhibitor of Chk1 (Chk1 [5]): potent and selective inhibitor of Chk1
cytotoxicity of genotoxic chemotherapeutic agents and targeted agents (Chk1 [6]): dose-dependent potentiation
genotoxicity-induced checkpoint arrest (Chk1 [6]): dose-dependent inhibition
genotoxic chemotherapy-induced Chk1 autophosphorylation (Chk1 [6]; data not shown): potently inhibited
antitumor activity [7]: Significant, dose-dependent antitumor activity
induction of CYP1A2 (CYP1A2): < 10 % positive control
MTD [8]: 225 mg/m^2/day
antitumor activity ([9]; in combination with standard-dose gemcitabine): Significant, dose-dependent antitumor activity
synergy ([9]; with low-dose gemcitabine): Synergy
Percentage Bound ([10]; 1 μM): 94.5%
Percentage Free ([10]; 1 μM): 5.5%
Percentage Bound ([10]; 10 μM): 93.4%
Percentage Free ([10]; 10 μM): 6.6%
fraction unbound ([10]; mouse, plasma, summary of 1 and 10 μM): 0.06
plasma protein binding ([10]; mouse, summary of 1 and 10 μM): ~94%
IC50 (CYP 1A2): 10 to 50 µM
parent remained (minipig hepatocytes): 7%
